In the kinase profiling compilation of Christmann-Franck et al. (2016):

Tests used:
Test in all cases: KINOMEscan competition binding
Conditions in all cases: compound 1.0 µM
CAMK1D (human) = CAMK1D (human) (UniProt Q8IU85)
[1] = system: FLT3 (human), P36888 [K663Q]
MAPK6 (human) = MAPK6 (human) (UniProt Q16659)
EPHA8 (human) = EPHA8 (human) (UniProt P29322)
MYLK3 (human) = MYLK3 (human) (UniProt Q32MK0)
MINK1 (human) = MINK1 (human) (UniProt Q8N4C8)
GSG2 (human) = GSG2 (human) (UniProt Q8TF76)
CDK19 (human) = CDK19 (human) (UniProt Q9BWU1)
EPHA1 (human) = EPHA1 (human) (UniProt P21709)
MYO3A (human) = MYO3A (human) (UniProt Q8NEV4)
PTK2 (human) = PTK2 (human) (UniProt Q05397)
Chain of PTK2 (human) (Q05397 whole entry, looked up): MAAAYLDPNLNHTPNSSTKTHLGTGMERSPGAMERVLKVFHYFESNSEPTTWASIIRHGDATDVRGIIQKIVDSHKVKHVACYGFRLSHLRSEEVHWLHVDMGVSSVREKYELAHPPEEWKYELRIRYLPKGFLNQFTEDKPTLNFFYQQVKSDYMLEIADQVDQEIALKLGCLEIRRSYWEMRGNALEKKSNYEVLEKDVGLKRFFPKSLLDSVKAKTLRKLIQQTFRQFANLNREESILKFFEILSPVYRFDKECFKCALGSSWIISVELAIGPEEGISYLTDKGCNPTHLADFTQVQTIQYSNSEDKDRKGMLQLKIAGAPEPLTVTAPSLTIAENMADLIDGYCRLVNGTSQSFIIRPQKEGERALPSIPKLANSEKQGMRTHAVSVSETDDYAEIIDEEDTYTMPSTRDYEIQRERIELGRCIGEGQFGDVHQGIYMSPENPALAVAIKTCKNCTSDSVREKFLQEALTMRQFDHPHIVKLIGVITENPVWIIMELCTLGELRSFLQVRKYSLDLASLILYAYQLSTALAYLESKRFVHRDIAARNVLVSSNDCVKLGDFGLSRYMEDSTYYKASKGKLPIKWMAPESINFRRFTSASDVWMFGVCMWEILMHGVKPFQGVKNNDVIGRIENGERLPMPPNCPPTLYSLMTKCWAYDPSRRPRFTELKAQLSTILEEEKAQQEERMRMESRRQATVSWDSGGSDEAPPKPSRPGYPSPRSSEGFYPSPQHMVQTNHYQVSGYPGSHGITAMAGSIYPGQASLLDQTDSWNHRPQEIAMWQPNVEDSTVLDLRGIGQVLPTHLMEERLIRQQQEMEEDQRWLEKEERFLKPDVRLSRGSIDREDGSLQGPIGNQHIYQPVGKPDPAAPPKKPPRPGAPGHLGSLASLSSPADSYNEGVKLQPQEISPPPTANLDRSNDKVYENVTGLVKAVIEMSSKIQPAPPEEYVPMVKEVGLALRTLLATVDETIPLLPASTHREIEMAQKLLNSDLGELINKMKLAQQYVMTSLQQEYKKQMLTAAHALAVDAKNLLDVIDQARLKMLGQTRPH

ADCK4 (human) = ADCK4 (human) (UniProt Q96D53)
[2] = system: MET (human), P08581 [Y1235D]
DAPK3 (human) = DAPK3 (human) (UniProt O43293)
RIPK2 (human) = RIPK2 (human) (UniProt O43353)
[3] = system: FLT3 (human), P36888 [D835H]
TLK1 (human) = TLK1 (human) (UniProt Q9UKI8)
EPHB2 (human) = EPHB2 (human) (UniProt P29323)
DSTYK (human) = DSTYK (human) (UniProt Q6XUX3)
CDC42BPB (human) = CDC42BPB (human) (UniProt Q9Y5S2)
MAP4K4 (human) = MAP4K4 (human) (UniProt O95819)
Chain of MAP4K4 (human) (O95819 whole entry, looked up): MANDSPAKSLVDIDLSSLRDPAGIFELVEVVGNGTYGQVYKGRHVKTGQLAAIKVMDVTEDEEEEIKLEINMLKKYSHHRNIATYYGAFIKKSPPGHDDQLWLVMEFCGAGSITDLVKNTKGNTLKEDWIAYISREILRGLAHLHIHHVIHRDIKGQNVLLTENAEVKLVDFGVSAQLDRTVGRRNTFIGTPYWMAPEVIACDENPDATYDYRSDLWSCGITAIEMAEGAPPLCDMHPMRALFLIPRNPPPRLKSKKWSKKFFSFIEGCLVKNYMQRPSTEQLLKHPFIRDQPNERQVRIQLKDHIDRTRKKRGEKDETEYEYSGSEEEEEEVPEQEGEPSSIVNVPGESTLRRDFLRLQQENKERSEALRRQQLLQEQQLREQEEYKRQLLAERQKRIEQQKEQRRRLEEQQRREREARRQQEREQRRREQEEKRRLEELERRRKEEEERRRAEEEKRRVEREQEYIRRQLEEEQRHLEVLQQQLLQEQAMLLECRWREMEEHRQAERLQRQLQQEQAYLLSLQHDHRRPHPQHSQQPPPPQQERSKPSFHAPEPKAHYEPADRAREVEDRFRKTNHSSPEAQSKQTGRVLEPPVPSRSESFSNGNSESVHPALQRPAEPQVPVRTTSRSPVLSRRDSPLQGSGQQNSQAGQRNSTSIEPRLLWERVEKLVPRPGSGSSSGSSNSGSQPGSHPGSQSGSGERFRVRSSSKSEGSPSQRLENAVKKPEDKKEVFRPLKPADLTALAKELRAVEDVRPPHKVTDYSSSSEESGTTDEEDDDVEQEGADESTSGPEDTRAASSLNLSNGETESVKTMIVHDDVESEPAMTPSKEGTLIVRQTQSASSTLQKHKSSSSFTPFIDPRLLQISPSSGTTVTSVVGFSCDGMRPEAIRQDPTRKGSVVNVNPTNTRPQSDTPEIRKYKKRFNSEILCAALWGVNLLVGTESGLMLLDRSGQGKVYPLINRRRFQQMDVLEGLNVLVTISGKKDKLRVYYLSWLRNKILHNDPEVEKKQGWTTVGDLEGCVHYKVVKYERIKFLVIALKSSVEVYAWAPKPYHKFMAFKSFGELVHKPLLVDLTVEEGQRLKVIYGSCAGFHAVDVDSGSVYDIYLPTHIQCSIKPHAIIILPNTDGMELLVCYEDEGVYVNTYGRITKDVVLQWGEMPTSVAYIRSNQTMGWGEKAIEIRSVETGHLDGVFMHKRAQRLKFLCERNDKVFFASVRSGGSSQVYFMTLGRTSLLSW

PTK2B (human) = PTK2B (human) (UniProt Q14289)
TGFBR1 (human) = TGFBR1 (human) (UniProt P36897)
AURKA (human) = AURKA (human) (UniProt O14965)
NIM1 (human) = NIM1 (human) (UniProt Q8IY84)
Chain of NIM1 (human) (Q8IY84 whole entry, looked up): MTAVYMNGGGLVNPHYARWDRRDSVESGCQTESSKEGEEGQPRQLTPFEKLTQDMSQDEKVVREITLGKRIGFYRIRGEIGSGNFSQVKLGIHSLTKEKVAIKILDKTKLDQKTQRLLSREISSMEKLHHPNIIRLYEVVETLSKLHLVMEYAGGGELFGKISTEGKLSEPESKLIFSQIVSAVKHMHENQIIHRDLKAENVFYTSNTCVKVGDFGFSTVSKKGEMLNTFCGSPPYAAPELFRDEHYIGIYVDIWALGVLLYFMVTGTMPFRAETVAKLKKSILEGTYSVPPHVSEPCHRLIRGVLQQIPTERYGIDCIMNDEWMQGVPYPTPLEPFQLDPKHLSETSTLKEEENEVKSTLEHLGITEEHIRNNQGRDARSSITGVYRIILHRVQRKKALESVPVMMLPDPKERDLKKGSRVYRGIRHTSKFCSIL

GRK1 (human) = GRK1 (human) (UniProt Q15835)
Chain of GRK1 (human) (Q15835 whole entry, looked up): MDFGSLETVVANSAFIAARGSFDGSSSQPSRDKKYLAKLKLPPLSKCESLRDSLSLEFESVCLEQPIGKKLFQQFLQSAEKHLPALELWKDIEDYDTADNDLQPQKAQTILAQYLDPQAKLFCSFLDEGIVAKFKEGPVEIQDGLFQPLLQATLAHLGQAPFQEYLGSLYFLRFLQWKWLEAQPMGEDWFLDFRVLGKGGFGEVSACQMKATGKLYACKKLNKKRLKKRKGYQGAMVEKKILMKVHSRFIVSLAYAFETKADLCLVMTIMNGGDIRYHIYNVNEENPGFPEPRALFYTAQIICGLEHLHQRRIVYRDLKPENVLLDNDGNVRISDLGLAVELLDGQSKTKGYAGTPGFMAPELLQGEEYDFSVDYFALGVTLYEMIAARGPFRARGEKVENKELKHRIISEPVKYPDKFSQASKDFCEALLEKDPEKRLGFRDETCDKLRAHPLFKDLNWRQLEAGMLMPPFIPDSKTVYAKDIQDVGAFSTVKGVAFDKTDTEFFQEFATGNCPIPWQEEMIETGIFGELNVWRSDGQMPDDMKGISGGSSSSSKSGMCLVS

RPS6KA6 KD1 (human) = RPS6KA6 KD1 (human) (UniProt Q9UK32)
PIM1 (human) = PIM1 (human) (UniProt P11309)
MUSK (human) = MUSK (human) (UniProt O15146)
CAMK4 (human) = CAMK4 (human) (UniProt Q16566)
CDC42BPG (human) = CDC42BPG (human) (UniProt Q6DT37)
ACVR1 (human) = ACVR1 (human) (UniProt Q04771)
STK32B (human) = STK32B (human) (UniProt Q9NY57)
BRSK1 (human) = BRSK1 (human) (UniProt Q8TDC3)
Chain of BRSK1 (human) (Q8TDC3 whole entry, looked up): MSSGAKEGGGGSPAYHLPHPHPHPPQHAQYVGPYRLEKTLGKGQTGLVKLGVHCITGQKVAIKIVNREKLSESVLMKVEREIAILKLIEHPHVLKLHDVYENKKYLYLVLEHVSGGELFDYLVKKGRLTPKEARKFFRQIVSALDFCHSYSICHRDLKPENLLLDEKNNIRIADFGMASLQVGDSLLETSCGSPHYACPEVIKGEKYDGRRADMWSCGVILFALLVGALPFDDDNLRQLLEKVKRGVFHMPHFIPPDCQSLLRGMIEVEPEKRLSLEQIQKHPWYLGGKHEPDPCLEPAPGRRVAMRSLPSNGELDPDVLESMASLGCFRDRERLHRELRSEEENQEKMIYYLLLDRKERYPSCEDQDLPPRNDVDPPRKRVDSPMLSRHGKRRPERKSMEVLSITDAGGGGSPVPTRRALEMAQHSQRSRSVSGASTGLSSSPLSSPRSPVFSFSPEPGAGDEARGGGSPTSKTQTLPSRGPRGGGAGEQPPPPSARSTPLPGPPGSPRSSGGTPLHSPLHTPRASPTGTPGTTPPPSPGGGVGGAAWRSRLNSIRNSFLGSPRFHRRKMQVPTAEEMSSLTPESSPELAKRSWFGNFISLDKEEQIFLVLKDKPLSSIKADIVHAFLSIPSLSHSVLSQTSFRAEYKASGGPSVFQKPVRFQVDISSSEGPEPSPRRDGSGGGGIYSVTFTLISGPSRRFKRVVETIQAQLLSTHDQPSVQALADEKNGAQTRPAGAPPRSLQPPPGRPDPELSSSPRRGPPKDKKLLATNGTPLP

EPHA6 (human) = EPHA6 (human) (UniProt Q9UF33)
MARK4 (human) = MARK4 (human) (UniProt Q96L34)
RPS6KA4 KD2 (human) = RPS6KA4 KD2 (human) (UniProt O75676)
MAP3K6 (human) = MAP3K6 (human) (UniProt O95382)
CLK3 (human) = CLK3 (human) (UniProt P49761)

Chain of EPHA8 (human) (P29322 whole entry, looked up): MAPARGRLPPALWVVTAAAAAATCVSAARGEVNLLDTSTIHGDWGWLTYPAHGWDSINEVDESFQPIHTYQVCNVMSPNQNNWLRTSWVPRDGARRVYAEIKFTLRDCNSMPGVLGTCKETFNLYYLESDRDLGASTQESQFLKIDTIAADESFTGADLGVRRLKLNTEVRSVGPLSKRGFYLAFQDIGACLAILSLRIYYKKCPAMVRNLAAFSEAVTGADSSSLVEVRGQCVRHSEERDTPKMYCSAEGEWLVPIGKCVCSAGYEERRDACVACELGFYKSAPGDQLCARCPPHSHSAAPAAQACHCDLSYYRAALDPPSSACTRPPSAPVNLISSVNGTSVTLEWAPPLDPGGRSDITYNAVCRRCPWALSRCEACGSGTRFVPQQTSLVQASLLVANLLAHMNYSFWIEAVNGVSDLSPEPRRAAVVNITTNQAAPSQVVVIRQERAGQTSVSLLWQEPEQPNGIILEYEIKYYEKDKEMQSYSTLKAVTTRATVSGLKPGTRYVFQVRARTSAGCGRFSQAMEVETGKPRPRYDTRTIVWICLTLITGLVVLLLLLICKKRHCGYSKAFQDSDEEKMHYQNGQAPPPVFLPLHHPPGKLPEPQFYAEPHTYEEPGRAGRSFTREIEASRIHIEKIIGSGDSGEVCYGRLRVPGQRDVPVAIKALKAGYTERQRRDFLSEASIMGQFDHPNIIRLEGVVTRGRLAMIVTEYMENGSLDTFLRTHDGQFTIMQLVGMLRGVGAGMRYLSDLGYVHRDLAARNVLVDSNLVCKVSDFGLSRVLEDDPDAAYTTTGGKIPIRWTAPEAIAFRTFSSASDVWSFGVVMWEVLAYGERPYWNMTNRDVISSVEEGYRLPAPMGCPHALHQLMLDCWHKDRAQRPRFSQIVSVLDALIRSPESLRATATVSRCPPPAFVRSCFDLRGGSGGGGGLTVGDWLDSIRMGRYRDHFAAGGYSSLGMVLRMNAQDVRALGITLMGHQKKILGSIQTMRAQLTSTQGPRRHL

SMILES: CNc1nc(Nc2ccc(C(=O)N3CCOCC3)cc2OC)ncc1Cl
- kinase still bound, per cent of control (CAMK1D (human)): 100%
- kinase still bound, per cent of control [1]: 53%
- kinase still bound, per cent of control (MAPK6 (human)): 100%
- kinase still bound, per cent of control (EPHA8 (human)): 100%
- kinase still bound, per cent of control (MYLK3 (human)): 100%
- kinase still bound, per cent of control (MINK1 (human)): 100%
- kinase still bound, per cent of control (GSG2 (human)): 74%
- residual activity (CDK19 (human)): 100%
- kinase still bound, per cent of control (EPHA1 (human)): 100%
- kinase still bound, per cent of control (MYO3A (human)): 63%
- kinase still bound, per cent of control (PTK2 (human)): 88%
- kinase still bound, per cent of control (ADCK4 (human)): 100%
- kinase still bound, per cent of control [2]: 100%
- kinase still bound, per cent of control (DAPK3 (human)): 63%
- kinase still bound, per cent of control (RIPK2 (human)): 54%
- kinase still bound, per cent of control [3]: 78%
- kinase still bound, per cent of control (TLK1 (human)): 93%
- kinase still bound, per cent of control (EPHB2 (human)): 100%
- kinase still bound, per cent of control (DSTYK (human)): 100%
- kinase still bound, per cent of control (CDC42BPB (human)): 100%
- kinase still bound, per cent of control (MAP4K4 (human)): 77%
- kinase still bound, per cent of control (PTK2B (human)): 82%
- kinase still bound, per cent of control (TGFBR1 (human)): 100%
- kinase still bound, per cent of control (AURKA (human)): 96%
- kinase still bound, per cent of control (NIM1 (human)): 100%
- kinase still bound, per cent of control (GRK1 (human)): 100%
- kinase still bound, per cent of control (RPS6KA6 KD1 (human)): 100%
- kinase still bound, per cent of control (PIM1 (human)): 100%
- kinase still bound, per cent of control (MUSK (human)): 100%
- kinase still bound, per cent of control (CAMK4 (human)): 100%
- kinase still bound, per cent of control (CDC42BPG (human)): 100%
- kinase still bound, per cent of control (ACVR1 (human)): 95%
- kinase still bound, per cent of control (STK32B (human)): 99%
- kinase still bound, per cent of control (BRSK1 (human)): 96%
- kinase still bound, per cent of control (EPHA6 (human)): 100%
- kinase still bound, per cent of control (MARK4 (human)): 45%
- kinase still bound, per cent of control (RPS6KA4 KD2 (human)): 23%
- kinase still bound, per cent of control (MAP3K6 (human)): 100%
- kinase still bound, per cent of control (CLK3 (human)): 100%
